Experiment [1] has as its system HT-29. The experiment can be described thus: Antiproliferative activity against human HT-29 cells assessed as reduction in cell growth incubated for 48 hrs by MTT assay. It is filed as functional, cell-based. The following applies: HT-29, 48 h. In general terms: Formazan colour is commonly taken as a measure of viable cells.
In a further experiment the test system is A549. The experiment is described as follows: Antiproliferative activity against human A549 cells assessed as reduction in cell growth incubated for 48 hrs by MTT assay. It is filed as functional, cell-based. The following applies: A549, 48 h.
The subject of experiment [2] is HT-29. The experiment is described as follows: Induction of apoptosis in human HT-29 cells assessed as viable cells at 15 uM incubated for 48 hrs by annexin V-FITC and PI staining based flow cytometry analysis (reference value: 88.2 %). The following applies: read-out: Activity. It is filed as functional.
For experiment [3], the system named is HT-29. The experiment can be described thus: Induction of apoptosis in human HT-29 cells assessed as early apoptotic cells at 15 uM incubated for 48 hrs by annexin V-FITC and PI staining based flow cytometry analysis (reference value: 1.01 %). Format: functional. In general terms: A flow cytometer gives signals particle by particle.
The test system of experiment [4] is HT-29. The experiment can be described thus: Induction of apoptosis in human HT-29 cells assessed as necrotic cells at 15 uM incubated for 48 hrs by annexin V-FITC and PI staining based flow cytometry analysis (reference value: 9.68 %). Format: functional.
Experiment [5] deals with HT-29. The experiment can be described thus: Induction of cell cycle arrest in human HT-29 cells assessed as G1 phase accumulation at 15 uM incubated for 48 hrs by PI staining based flow cytometry analysis (reference value: 56.39 %). It is filed as functional.
In experiment [6] the test system is HT-29. The experiment can be described thus: Induction of cell cycle arrest in human HT-29 cells assessed as S phase accumulation at 15 uM incubated for 48 hrs by PI staining based flow cytometry analysis (reference value: 36.98 %). Format: functional.
Experiment [7] concerns HT-29. The experiment can be described thus: Induction of cell cycle arrest in human HT-29 cells assessed as G2 phase accumulation at 15 uM incubated for 48 hrs by PI staining based flow cytometry analysis (reference value: 11.7 %). It is filed as functional.
The subject of experiment [8] is HT-29. The experiment can be described thus: Induction of cell cycle arrest in human HT-29 cells assessed as subG1 phase accumulation at 15 uM incubated for 48 hrs by PI staining based flow cytometry analysis (reference value: 0.06 %). It is filed as functional.

SMILES strings stand for the structures.

A word on the IC50: it is the midpoint of a concentration-inhibition curve. Turning to `O=C(Nc1ccc(OC(=O)c2ccc(Cl)cc2)cc1)Nc1ccc(Cl)c(C(F)(F)F)c1`, the results for the IC50 with HT-29 [1] and in the experiment with A549 were 8.32 µM and 6.62 µM, respectively.
Take `O=C(Nc1ccccc1)Nc1ccc(OC(=O)Cc2ccccc2)cc1`: the results for the IC50 in the experiment with HT-29 [1] and with A549 were 185 µM and 153 µM, respectively.
In the same order, the values of `O=C(Nc1ccccc1)Nc1ccc(OC(=O)c2ccccc2)cc1` are 123 µM and 81.2 µM.
Consider `COc1ccc(C(=O)Oc2ccc(NC(=O)Nc3ccc(Cl)c(C(F)(F)F)c3)cc2)cc1`, for which the IC50 was 33.8 µM in the experiment on HT-29 [1] and 16.1 µM in the experiment on A549.
For the compound `CNC(=O)c1cc(Oc2ccc(NC(=O)Nc3ccc(Cl)c(C(F)(F)F)c3)cc2)ccn1` [SORAFENIB], the IC50 is 17.3 µM in the experiment with HT-29 [1] and 5.62 µM with A549. Further, in the experiment on HT-29 [2], the viability at 15 µM was 81.3%. The Activity in the experiment with HT-29 [3] is given as 5.76%; with HT-29 [4], 8.72%; with HT-29 [5], 75.23%; with HT-29 [6] it was 12.19%; in the experiment with HT-29 [7], 14.54%; with HT-29 [8] it was 1.69%.
Consider `O=C(Nc1ccccc1)Nc1ccc(OC(=O)c2ccc(F)cc2)cc1`, for which the IC50 in the experiment with HT-29 [1] was determined as 128 µM; in the experiment on A549, 38.5 µM.
In the same order, the values of `O=C(Nc1ccc(OC(=O)c2cc3cc([N+](=O)[O-])ccc3s2)cc1)Nc1ccc(Oc2ccccc2)cc1` are 13.3 µM and 25.2 µM.
In the same order, the values of `O=C(Nc1ccc(OC(=O)c2ccccc2)cc1)Nc1ccc(Cl)c(C(F)(F)F)c1` are 151 µM and 30.1 µM.

The values above are taken from ChEMBL document CHEMBL4765379, “Synthesis and biological evaluation of diaryl urea derivatives designed as potential anticarcinoma agents using de novo structure-based lead optimization approach” (Eur J Med Chem, 2020).
